Key:
[1] = tested on: harmaline-induced tremor; assay: Harmaline-induced tremors in rats; format: in vivo, Sprague-Dawley rats; settings: for Tremor Score Median: harmaline 6 mg/kg i.p. 60 min later, observed 30 min, vehicle median 6.00, p<0.01 vs vehicle
Text: Harmaline-induced tremor in rats is a commonly accepted animal model that is predictive of essential tremor and related movement disorders in human (Miwa H, et. al., Differential expression of c-Fos following administration of two tremorgenic agents: harmaline and oxotremorine, NeuroReport, 2000, 11 (11), 2385-2390; Stanford J A and Fowler S C, At low doses, harmaline increases forelimb tremor in the rat, Neurosci. Lett., 1998, 241 (1), 41-44; Sinton C M, The effectiveness of different isomers of octanol as blockers of harmaline-induced tremor, Pfluegers Arch., 1989, 414 (1), 31-6).
An enantiomer of Formula (Ib) was evaluated for efficacy in treating essential tremor and related movement disorders with doses up to 30 mg/kg. The enantiomer of Formula (Ib) or vehicle (0.5% hydroxypropyl methylcellulose) was administered orally by gavage in a dose volume equivalent to 5 mL/kg to Sprague-Dawley rats (135 to 275 g). Harmaline (6 mg/kg in volume of 5 mL/kg, i.p.) was administered 60 min thereafter. Immediately after the harmaline administration, rats were placed individually in a blinded fashion in plastic cages on wood-chip bedding and observed for 30 minutes. Appearance of tremors was scored using a nine-item checklist. The checklist includes scoring for: tremors at rest, tremors during locomotion, intermittent tremors, continuous tremors, tremors provoked by tail-restraint, generalized tremors (head, body and tail), tremors of the head only, tremors of the body only and tremors of the tail only. Signs observed in rats treated with vehicle or test compound are compared by ranking tremor quality and severity.
Tremor provoked following tail-restraint was assigned a score =1. Tremors that appear continuously were assigned a score =2, while tremors that appear intermittently were assigned a score =1. The appearance of generalized tremors were assigned a score =2, while a score =1 was assigned to tremor that involves only the head, body or tail of the rat. The severity of tremor is scored subjectively as mild in intensity or as moderate or marked. […]

[2] = tested on: essential tremor; settings: nine patients with essential tremor; cited from earlier work
[3] = tested on: essential tremor; settings: open-label report, essential tremor patients; cited from earlier work

In the case of `NC(=O)OC[C@@H](O)c1ccccc1Cl` [Formula (Ib)], the “Tremor Score Median” value ([1]; 20 mg/kg p.o.) is reported as 2.00, the “Tremor Score Median” value ([1]; 30 mg/kg p.o.) is reported as 1.20 and the “reduction in the tremor score in drug-treated groups compared to the vehicle-treated group” value ([1]; Kruskal-Wallis nonparametric one-way method, rats, p.o.) is reported as “significant”.

In the case of `CC1(C)O[C@@H]2[C@@H](CO[C@@]3(COS(N)(=O)=O)OC(C)(C)O[C@@H]23)O1` [Topiramate], the “patient self-rating after topiramate therapy” value [2] is given as “Eight patients rated themselves as better and with less disability”.

For `NCC1(CC(=O)O)CCCCC1` [gabapentin, Gabapentin], the effect on tremor [3] is listed as “reduced tremor in five patients”.

— patent US6589985B2, “Carbamate compounds for use in preventing or treating movement disorders” (Ortho-McNeil Pharmaceutical, Inc., priority 2001, dated 2003)
